Measured values from patent publication US20230272010A1, “ANTIBACTERIAL SYNTHETIC-BIOINFORMATIC NATURAL PRODUCTS AND USES THEREOF” (The Rockefeller University, priority 2020, published 2023).
In brackets after ≈: the same amount, converted by molar mass. Residues, ends and D or L forms follow the SMILES beside them.

Key:
[1] = system: Bacillus subtilis, Escherichia coli, and the ESKAPE pathogens; assay: Antibacterial activity / MIC against screening panel of bacteria; assay type: cell-based; conditions: panel of Gram-positive and Gram-negative bacteria, FIG. 4A
Text: To identify antibacterial active syn-BNPs, each fraction, containing the mass of a target syn-BNP cyclic peptide against Bacillus subtilis, Escherichia coli, and the ESKAPE pathogens, was screened. ESKAPE pathogens represented the bacteria most commonly associated with antibiotic-resistant nosocomial infections: Enterococcus faecium, Staphylococcus aureus, Klebsiella pneumoniae, Acinetobacter baumannii, Pseudomonas aeruginosa, and Enterobacter cloacae (Boucher H W et al., 2009, Clin. Infect. Dis., 48:1-12).
In the initial screen, semi-pure peptides were spotted on solid growth media seeded with each bacterium. […]
Standard susceptibility assays were performed in the appropriate growth medium in 96-well microtiter plates to determine the MIC by the broth microdilution method in accordance to protocols recommended by Clinical and Laboratory Standards Institute (Weinstein MP, 2012, Methods for dilution antimicrobial susceptibility tests for bacteria that grow aerobically, 9th edition; Clinical and Laboratory Standards Institute, Wayne, Pa.). For polymyxin-supplemented assays, the MIC of polymyxin against a bacterium was first determined (lx MIC). […] The measured MICs were as follows: E. coli DH5α (0.0625 μg/mL), K. pneumoniae and P. aeruginosa (0.15 μg/mL), A. baumannii ([…]), and E. cloacae (2 μg/mL). […]

S. aureus or B. subtilis = assay: Membrane lysis assay (SYTOX fluorescence); assay type: cell-based; conditions: initial assays, FIG. 4C and 4D
in vitro = assay type: cell-based, human; conditions: human
Protocol: (§1) HeLa cells were grown in Dulbecco's Modified Eagle Medium (DMEM) supplemented with penicillin (10 units/mL), streptomycin (10 units/mL), […] (2 mM), and heat-inactivated fetal bovine serum (10% v/v) at 37° C. in a 5% CO2 atmosphere. HeLa cells were seeded into 384-well plates (500 cells per well) and incubated in DMEM at 37° C. with 5% CO2 for 16 h to allow cells to adhere. The OD570 readings were used to calculate relative growth (%) based on the positive (2 μM Taxol™, 0%) and negative (DMSO, 100%) controls. The cytotoxicity assay was performed in quadruplicate (n=4) and analyzed according to protocol reported previously (Chu Jet al., 2019, J. Am. Chem. Soc., 141:15737-15741).

M. tuberculosis H37Rv = conditions: highest concentration tested 12.5 μg/mL
HeLa cells = assay: in vitro; assay type: cell-based, human
Protocol: as §1

S. aureus SH1000 ΔclpP = conditions: clpP deletion
[2] = system: S. aureus farER deletion mutant with constitutive overexpression of the farER effux system (pALCfarER)
[3] = system: S. aureus farER deletion mutant
A. baumannii = assay: MIC determination by broth microdilution; assay type: cell-based, Acinetobacter baumannii
E. coli DH5α = assay: MIC determination by broth microdilution; assay type: cell-based, Escherichia coli
P. aeruginosa = assay: MIC determination by broth microdilution; assay type: cell-based, Pseudomonas aeruginosa

## CCCCCCCCCCCCCC(=O)N[C@@H]1CNC(=O)[C@@H]2CCCN2C(=O)[C@H](Cc2ccccc2)NC(=O)[C@@H](C(C)C)NC(=O)[C@H](C)NC(=O)[C@@H](CCC(N)=O)NC(=O)[C@H]2CCCN2C1=O [SyCPA 2] (HELM PEPTIDE1{[CCCCCCCCCCCCCC(=O)[*:2]].[O=C([C@@H](CN[*:3])N[*:1])[*:2]].[dP].[dQ].A.[dV].F.P}$PEPTIDE1,PEPTIDE1,2:R3-8:R2$$$V2.0)
[1]
  Spectrum of activity: broader Gram-positive activity
S. aureus or B. subtilis
  SYTOX or DiSC3(5) fluorescence: slight increase in either SYTOX or DiSC3(5) fluorescence
In vitro
  IC50: 16 µg/mL (≈ 17.1 µM)

## CCCCCCCCCCCCCC(=O)N[C@H]1CCCNC(=O)[C@H](CC(C)C)NC(=O)[C@H](CCCNC(=N)N)NC(=O)[C@H]([C@@H](C)CC)NC(=O)[C@@H](CCCNC(=N)N)NC1=O [SyCPA 63, thurinsyn] (HELM PEPTIDE1{[CCCCCCCCCCCCCC(=O)[*:2]].[Orn].[dR].I.R.L}$PEPTIDE1,PEPTIDE1,2:R3-6:R2$$$V2.0)
M. tuberculosis H37Rv
  MIC: 6 µg/mL (≈ 6.95 µM)
HeLa cells
  Cytotoxicity (in words): minimal HeLa cell cytotoxicity
K. pneumoniae
  MIC: 8 µg/mL (≈ 9.27 µM)

## CCCCCCCCCCCC1CC(=O)N[C@H](CC(C)C)C(=O)N[C@H](CN)C(=O)N[C@@H](C(C)C)C(=O)N[C@@H](CO)C(=O)N[C@@H]([C@@H](C)CC)C(=O)N1 (stereo partly drawn) [SyCPA 116, collimosyn] (HELM PEPTIDE1{I.[CCCCCCCCCCCC(CC(=O)[*:2])N[*:1]].[dL].[NC[C@@H](N[*:1])C(=O)[*:2]].V.S}$PEPTIDE1,PEPTIDE1,1:R1-6:R2$$$V2.0)
S. aureus SH1000 ΔclpP
  Resistance (MIC): > 128 µg/mL
[2]
  MIC: > 64 µg/mL
[3]
  MIC: 8 µg/mL (≈ 11 µM)
In vitro
  IC50: 11 µg/mL (≈ 15.2 µM)
HeLa cells
  Cytotoxicity (in words): showed human cell line toxicity

## CCCCCCCCCCCC1CC(=O)N[C@H](Cc2ccccc2)C(=O)N[C@H](CCCN)C(=O)N[C@@H](C(C)C)C(=O)N[C@@H]([C@@H](C)CC)C(=O)N[C@@H](Cc2ccccc2)C(=O)N[C@@H](C)C(=O)N[C@@H](Cc2ccccc2)C(=O)N1 (stereo partly shown) [SyCPA 144, mucilasyn] (HELM PEPTIDE1{A.F.[CCCCCCCCCCCC(CC(=O)[*:2])N[*:1]].[dF].[NCCC[C@@H](N[*:1])C(=O)[*:2]].V.I.F}$PEPTIDE1,PEPTIDE1,1:R1-8:R2$$$V2.0)
HeLa cells
  Cytotoxicity (in words): lack of toxicity to human cells in vitro

## polymyxin
A. baumannii
  MIC of polymyxin: 0.3 μ/mL
E. coli DH5α
  MIC of polymyxin: 0.0625 µg/mL
K. pneumoniae
  MIC of polymyxin: 0.15 µg/mL
P. aeruginosa
  MIC of polymyxin: 0.15 µg/mL
